US20260062422A1 (Halda Therapeutics OpCo, Inc., priority 2022, published 2026)

Tests used:
[1] = tested on: VCaP cells; assay: Cellular growth inhibition assay for VCaP cells, CellTiter-Glo; assay type: cell-based, human; settings: 72 hours treatment, CellTiter-Glo 2.0
Procedure, shortened: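 GI50 values come from four-parameter curve fits of luminescence data normalized to a zero baseline. Compound, in medium with 0.5% DMSO, was added one day after plating and left for 72 h before CellTiter-Glo 2.0 addition.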

[2] = tested on: T47D cells; assay: Cellular growth inhibition assay for T47D cells, CellTiter-Glo; assay type: cell-based, human; settings: 72 hours treatment, CellTiter-Glo 2.0 cell viability
Procedure, shortened: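 Luminescence from CellTiter-Glo 2.0 after 72 h of compound exposure gives the viability signal. Cells grew in insulin-supplemented (0.2 units/mL) DMEM with 10% FBS and were treated one day after seeding at 0.5% DMSO. GI50 values come from four-parameter nonlinear regression.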

[3] = tested on: T-Rex 293 cell line SC3 cells having increased expression of androgen receptor protein due to exposure to doxycycline; assay: Cellular growth inhibition, T-Rex 293 SC3 cells with doxycycline (androgen receptor induced), CellTiter-Glo; assay type: cell-based; settings: T-Rex 293 SC3 cells with 10 ng/mL doxycycline (increased androgen receptor expression)
Procedure, shortened: (§1)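 GI50 came from a four-parameter fit of CellTiter-Glo 2.0 luminescence after 72 h compound exposure (0.5% DMSO, 37 °C), dosing 24 h post-seeding. SC3 clone cells (2500/well), transfected with wild-type androgen receptor, grew in charcoal-stripped serum medium lacking phenol red, induced with 10 ng/mL doxycycline or left uninduced.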

[4] = tested on: T-Rex 293 cell line SC3 cells lacking increased expression of androgen receptor protein; assay: Cellular growth inhibition, T-Rex 293 SC3 cells without doxycycline, CellTiter-Glo; assay type: cell-based; settings: T-Rex 293 SC3 cells not exposed to doxycycline, CellTiter-Glo 2.0
Procedure, shortened: as §1

Row | Compound | GI50 ([1]; Homo sapiens, VCaP, 72 h) [nM] | GI50 ([2]; Homo sapiens, T47D, 72 h) [nM] | GI50 ([3]; 72 h) [nM] | GI50 ([4]; 72 h) [nM] | GI50 [1] [nM] | GI50 [2] [nM] | GI50 ([3]; 72 hours) [nM] | GI50 ([4]; 72 hours) [nM]
1 | COCC[C@@H]1N=C(c2ccc(OC3CC4(CCCN(c5ncc(C(=O)N[C@H]6C(C)(C)[C@@H](Oc7ccc(C#N)c(Cl)c7)C6(C)C)cn5)C4)C3)cc2)c2c(sc(C)c2C)-n2c(C)nnc21 [Compound I-569] | < 500 | > 3000 | < 500 | > 3000 |  |  |  | 
2 | COCC[C@@H]1N=C(c2ccc(OC3CC4(CCCN(c5ncc(C(=O)N[C@H]6C(C)(C)[C@@H](Oc7ccc(C#N)c(Cl)c7)C6(C)C)cn5)C4)C3)cc2)c2c(sc(C)c2C)-n2c(C)nnc21 [Compound I-570] |  |  |  |  | < 500 | > 3000 | < 500 | > 3000
3 | Cc1sc2c(c1C)C(c1ccc(C3CC(N4CCN(c5ncc(C(=O)N[C@H]6C(C)(C)[C@H](Oc7ccc(C#N)c(Cl)c7)C6(C)C)cn5)CC4)C3)cc1)=N[C@@H](C)c1nnc(C)n1-2 (some centres unmarked) [Compound I-571] | < 500 | < 500 | < 500 | 500 to 1500 |  |  |  | 
4 | Cc1sc2c(c1C)C(c1ccc(C3CC(N4CCN(c5ccc(C(=O)N[C@H]6C(C)(C)[C@H](Oc7ccc(C#N)c(Cl)c7)C6(C)C)cn5)CC4)C3)cc1)=N[C@@H](C)c1nnc(C)n1-2 (some centres unmarked) [Compound I-572] | < 500 | < 500 | < 500 | < 500 |  |  |  | 
5 | Cc1sc2c(c1C)C(c1ccc(C3CC(N4CCN(c5cnc(C(=O)N[C@H]6C(C)(C)[C@H](Oc7ccc(C#N)c(Cl)c7)C6(C)C)cn5)CC4)C3)cc1)=N[C@@H](C)c1nnc(C)n1-2 (some centres unmarked) [Compound I-573] | < 500 | < 500 | < 500 | 500 to 1500 |  |  |  | 
6 | CC[C@@H]1N=C(c2ccc(C#CC3CC4(C3)CN(c3ncc(C(=O)N[C@H]5C(C)(C)[C@H](Oc6ccc(C#N)c(Cl)c6)C5(C)C)cn3)C4)cc2)c2c(sc(C)c2C)-n2c(C)nnc21 [Compound I-576] | 500 to 1500 | < 500 | < 500 | 500 to 1500 |  |  |  | 
7 | Cc1sc2c(c1C)C(c1ccc(C3CC(N4CCN(c5ccc(C(=O)N[C@H]6C(C)(C)[C@H](Oc7ccc(C#N)c(Cl)c7)C6(C)C)nc5)CC4)C3)cc1)=N[C@@H](C)c1nnc(C)n1-2 (some centres unmarked) [Compound I-577] | < 500 | < 500 | < 500 | 500 to 1500 |  |  |  | 
8 | Cc1sc2c(c1C)C(c1ccc(N3CCC4(C3)CN(c3cnc(C(=O)N[C@H]5C(C)(C)[C@H](Oc6ccc(C#N)c(Cl)c6)C5(C)C)cn3)C4)cc1)=N[C@@H](C)c1nnc(C)n1-2 [Compound I-578] | < 500 | < 500 | > 3000 | > 3000 |  |  |  | 
9 | CC[C@@H]1N=C(c2ccc(C#CC3CC4(C3)CN(c3cnc(C(=O)N[C@H]5C(C)(C)[C@H](Oc6ccc(C#N)c(Cl)c6)C5(C)C)cn3)C4)cc2)c2c(sc(C)c2C)-n2c(C)nnc21 [Compound I-583] | < 500 | < 500 | < 500 | 500 to 1500 |  |  |  | 
10 | COCC[C@@H]1N=C(c2ccc(OC3CC4(C3)CC3(CCN(c5ncc(C(=O)N[C@H]6C(C)(C)[C@H](Oc7ccc(C#N)c(Cl)c7)C6(C)C)cn5)CC3)C4)cc2)c2c(sc(C)c2C)-n2c(C)nnc21 [Compound I-584] | < 500 | < 500 | < 500 | > 3000 |  |  |  | 
11 | COCC[C@@H]1N=C(c2ccc(CC3CC4(CCN(c5ncc(C(=O)N[C@H]6C(C)(C)[C@H](Oc7ccc(C#N)c(Cl)c7)C6(C)C)cn5)CC4)C3)cc2)c2c(sc(C)c2C)-n2c(C)nnc21 [Compound I-585] | < 500 | < 500 | < 500 | > 3000 |  |  |  | 
12 | COCC[C@@H]1N=C(c2ccc(CC3CC4(CCN(c5cnc(C(=O)N[C@H]6C(C)(C)[C@H](Oc7ccc(C#N)c(Cl)c7)C6(C)C)cn5)CC4)C3)cc2)c2c(sc(C)c2C)-n2c(C)nnc21 [Compound I-586] | < 500 | < 500 | < 500 | > 3000 |  |  |  | 
13 | Cc1sc2c(c1C)C(c1ccc(N3C[C@@]4(F)CN(c5ncc(C(=O)N[C@H]6C(C)(C)[C@H](Oc7ccc(C#N)c(Cl)c7)C6(C)C)cn5)C[C@@]4(F)C3)cc1)=N[C@@H](C)c1nnc(C)n1-2 [Compound I-587] | < 500 | < 500 | < 500 | > 3000 |  |  |  | 
14 | Cc1sc2c(c1C)C(c1ccc(CC3CC4(CCN(c5ccc(C(=O)N(C)[C@H]6C(C)(C)[C@H](Oc7ccc(C#N)c(Cl)c7)C6(C)C)cn5)CC4)C3)cc1)=N[C@@H](C)c1nnc(C)n1-2 [Compound I-589] | < 500 | 500 to 1500 | < 500 | > 3000 |  |  |  | 
